Data published in patent US20070202079A1, “Therapeutic compositions and methods useful in modulating protein tyrosine phosphatases” (priority 2006, published 2007).

Columns and labels:
C42 = C42 cell growth, MTT; type: cell-based, human
Description: For cell proliferation assays, cells were grown in 10% FCS culture medium containing various amounts of IFNs and/or sodium stibogluconate in 96 well plates and cultured at 37° C. for 3 or 6 days as indicated. The numbers of viable cells in proliferation assays were determined by MTT assays as described in Phatak et al., J. Immunol. 167, 3391 (2001).

[1] = tested on: IFNγ+ cells in human peripheral blood; assay: ELISPOT assays of peripheral blood treated in vitro; type: cell-based; settings: comparable conditions
Baf3 cells = assay: Baf3 cell proliferation assay; type: cell-based, murine
Description: The murine hematopoietic cell line Baf3 was maintained in RPMI 1640 medium supplemented with 10% fetal calf serum (FCS) and murine IL-3 (20 units/ml) as described previously in Damen et al., J. Biol. Chem. 270, 23402 (1995). Human myeloid cell line TF-1 was maintained in RPMI 1640 supplemented with 10% FCS and 40 ng/ml of recombinant human GM-CSF as described previously in Thomassen et al., Clin. Immunol. 95, 85 (2000). For cell proliferation assays, cells were washed in 10% FCS medium twice, resuspended in 10% FCS medium, incubated at 37° C. for 16 hours, and then cultured at 37° C. in 10% FCS medium containing various amounts of cytokines, sodium stibogluconate, or potassium antimonyl tartrate for 3-6 days as indicated. The cell numbers in proliferation assays were determined by an MTT assay or by microscopic cell counting as indicated.

Flag-PRL-1 = biological target: T1, Flag-PRL-1 (Homo sapiens, UniProt Q93096); assay: immunocomplex PTPase assay, NIH3T3 Flag-PRL-1 transfectants; type: cell-based, mouse; settings: cells treated 5 min
T1 construct: expressed in transfected cells; host or cells: WM9 human melanoma cell line (pBabepuro, puromycin-selected)
T1 sequence (Q93096 whole entry): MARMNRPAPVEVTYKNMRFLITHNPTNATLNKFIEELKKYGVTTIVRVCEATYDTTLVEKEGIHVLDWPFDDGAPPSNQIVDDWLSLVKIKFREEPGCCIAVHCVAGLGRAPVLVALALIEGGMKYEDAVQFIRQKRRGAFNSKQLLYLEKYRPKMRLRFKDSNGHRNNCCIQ
Description: Immunocomplex PTPase assays were performed to assess the effects of sodium stibogluconate on intracellular PTPases. Cells were untreated or treated with sodium stibogluconate for 5 minutes, washed with fresh medium and then lysed in cold lysis buffer (50 mM Tris, pH 7.4; 150 mM NaCl; 1% NP40; 2 mM PMSF; 20 μg/ml of Aprotinin). The lysates were incubated with an anti-Flag antibody in immunoprecipitation assays. The immunocomplexes were collected with protein G sepharose beads (Pharmacia) and washed in cold lysis buffer for 4 times. […] C. for 18 hrs. 100 μL of malachite green solution (UBI) was added to each reaction prior to measurement of OD660 to quantify the amounts of free phosphate cleaved by the PTPases from the peptide substrate (Pathak et al., J. Immunol. 167, 3391 (2001)). The remaining 10% contents of individual samples were analyzed by SDS-PAGE/Western blotting to quantify the relative amounts of the phosphatase proteins. […]
The effects of sodium stibogluconate on intracellular PTPases were assessed using NIH3T3 or WM9 transfectants. […]

NB4 cells = assay: NB4 growth, cell cycle and Annexin V; type: cell-based, human
Description: The NB4 cell line (Lanotte et al., Blood 77, 1080 (1991)) was a gift from Dr. Dan Lindner of the Cleveland Clinic Foundation. […] and U937 cell lines were purchased from American Type Culture Collection (Rockville, Md.). These human […] cell lines were maintained in RPMI 1640 medium supplemented with 10% fetal calf serum (FCS). For cell proliferation assays, cells were cultured at 37° C. in 10% FCS medium containing various amounts of sodium stibogluconate for 6 days. The cell numbers in the cultures were determined by an MTT assay as described previously in Mosmann, J. Immunol. Methods 65, 55 (1983).
The cell cycle was analyzed by flow cytometry after 3 days of culture of NB4 cells in the absence or presence of sodium stibogluconate (250 μg/ml) or ATRA (1 μM). Briefly, the cells were fixed in cold ethanol and incubated for 30 minutes at 4° C. in the dark with a solution of […] propidium iodide, 1 mg/ml RNase and 0.1% NP-40. Analysis was performed immediately after staining using the CELLFIT program (Becton Dickinson, Mountain View, Calif.).
Annexin V staining of exposed membrane phospholipid phosphatidylserine (PS) was done using the Annexin V assay kit (Pharmingen, San Diego, Calif.). Briefly, NB4 cells were cultured in the 10% FCS RPMI 1640 medium in the absence or presence of sodium stibogluconate (250 μg/ml) or ATRA (1 μM) for 3 days. Cells were then washed in PBS twice and stained in binding buffer (10 mM Hepes, pH 7.4; 140 mM NaCl; 2.5 mM CaCl2) containing Annexin V-FITC and propidium iodide for 15 min. The reaction was stopped by adding 10 volumes of binding buffer and analyzed by FACS (Becton Dickinson Facsvantage).

Q: O.O.O.O.O.O.O.O.O.O=C([O-])[C@@H]1[O][Sb]2([O-])([O][Sb]34([OH])[O][C@H]([C@H](O)CO)[C@H]([O]3)[C@H](C(=O)[O-])[O]4)[O][C@H]([C@H](O)CO)[C@@H]1[O]2.[Na+].[Na+].[Na+] [sodium stibogluconate] was tested. Which “sensitivity of C42 cells” value (C42) did it give?
A: highly resistant

Q: What about the “cells expressing TH2 cytokine IL-5” value [1] of the same molecule?
A: not induced

Q: What about the “effect on IL-3-induced Baf3 growth” value (Baf3 cells; 1,000 μg/ml) of the same molecule?
A: suppressed IL-3-induced Baf3 growth

Q: What about the “proliferation and viability in the absence of IL-3” value (Baf3 cells; day 3 culture) of the same molecule?
A: failed to support cell proliferation or maintain cell viability

Q: What about the “PTPase activity of immunocomplexes from treated Flag-PRL-1 transfectants” value (Flag-PRL-1) of the same molecule?
A: little PTPase activities

Q: What about the “Annexin V staining of NB4 cells” value (NB4 cells; 250 μg/ml, 6 days) of the same molecule?
A: stained positive by Annexin V

Q: And the “proliferation of NB4 cells” value (NB4 cells; 12.5-400 μg/ml)?
A: markedly inhibited

Q: And the “cell cycle of NB4 cells” value (NB4 cells; sodium stibogluconate 250 μg/ml or ATRA 1 μM, 3 days)?
A: significant increase of cells at S phase
